# Results from patent US20250092401A1, “COMBINATION THERAPY FOR TREATING HEPATITIS B VIRUS INFECTIONS” (GLAXOSMITHKLINE INTELLECTUAL PROPERTY DEVELOPMENT LIMITED, priority 2022, published 2025).
# Where “and” joins values, the source holds several entries; their conditions need not be identical. Equal entries are not always repeated. Where two headings read alike, the source gives them in different places.
# Experiments:
# [1] = tested on: HBV HBsAg; assay: HBsAg reduction in HBV infected primary human hepatocytes (ELISA); type: cell-based; settings: Hepatitis B virus, Hepatocyte
# Experimental: The potency (pIC50) of Compound A for reduction of HBV HBsAg was investigated in primary human hepatocytes (PHH) from three donors. HBV infected PHH samples were treated with Compound A for 21 days and secreted HBsAg was measured using an ELISA assay to determine the % inhibition and average potency of the replicates (two per PHH donor).
# (§1) The antiviral activity of Compound A was evaluated in in vitro HBV systems: (1) HepAD38, a hepatoma cell line with inducible expression of HBV, (2) primary human hepatocytes (PHHs) infected with HBV, and in vivo in infected male C57BL/6 mice with AAV-HBV. Overall there is a correlation between in vitro potency (HepAD38 & PHHs) and AAV-HBV in vivo model HBsAg inhibition.
# [2] = tested on: primary human hepatocytes (PHH); assay: Visual examination for cell toxicity in PHH; type: cell-based; settings: HBV infected PHH, 21 days treatment
# [3] = Toxicity evaluation incl. nerve toxicity, 28 days of dosing, rats; type: in vivo; settings: 28 days of dosing followed by 6 week off dose period
# Experimental: (§2) Studies were conducted to evaluate toxicity, including additional endpoints investigating nerve toxicity of Compound A after 28 days of dosing followed by a 6 week off dose period in rats and monkeys.
# [4] = Toxicity evaluation incl. nerve toxicity, 28 days of dosing, monkeys; type: in vivo; settings: 28 days of dosing followed by 6 week off dose period
# Experimental: as §2
# [5] = tested on: HBV HBsAg; assay: HBsAg reduction in HepAD38 cell line (HBsAg ELISA); type: cell-based, hepatitis B virus (HBV); settings: Hepatitis B virus; for EC50: HePAD38, 168 h, read-out: HBsAg (EC50)
# Experimental: HepAD38 cells were maintained in collagen-coated flasks in cell culture medium (DMEM/F12 containing 10% fetal bovine serum (FBS), GlutaMax-1, penicillin/streptomycin, non-essential amino acids, Na pyruvate, 250 μg/mL geneticin, and 1 μg/mL doxycycline). Compound solutions were prepared in DMSO and compounds were serially diluted for final concentrations of 4000, 1000, 250, 62.5, 15.6, 3.91, 0.977, 0.244, 0.061, and 0.015 nM. The cells were then trypsinized and the cells were plated at 10,000 cells per well. Plates were incubated at 37° C., 5% CO2 for 4 days. Media was replaced with new media with compound treatment. The plates were then incubated at 37° C., 5% CO2 for an additional 3 days for a total treatment time of 7 days. For antiviral response, HBsAg was measured using the HBsAg ELISA kit (International Immuno-diagnostics) with instructions provided. 100 μL of cell media samples was used for ELISA. The absorbance was read on the SPECTRAMAX 384 plate reader (Molecular Devices) at 450 nm. For cell toxicity, the cells were used for CELLTITER-GLO Luminescent Cell Viability Assay reagent (Promega). The luminescence was read on Envision Multilabel Reader (Perkin Elmer). The data was analyzed compared to the DMSO control.
# % inhibition=(1−(unknown/high control))*100
# The average % inhibition values from duplicate assay plates were then plotted in GraphPad Prism to determine one EC value: Four-parameter logistic curve with equation Y=Bottom+(Top-Bottom)/(1+10^((Log EC50−X)*Hillslope))
# as §1
# [6] = target: PAPD5 (Homo sapiens, UniProt Q8NDF8); assay: PAPD5 A15 RNA SPA biochemical assay
# Sequence of PAPD5 (Q8NDF8 whole entry): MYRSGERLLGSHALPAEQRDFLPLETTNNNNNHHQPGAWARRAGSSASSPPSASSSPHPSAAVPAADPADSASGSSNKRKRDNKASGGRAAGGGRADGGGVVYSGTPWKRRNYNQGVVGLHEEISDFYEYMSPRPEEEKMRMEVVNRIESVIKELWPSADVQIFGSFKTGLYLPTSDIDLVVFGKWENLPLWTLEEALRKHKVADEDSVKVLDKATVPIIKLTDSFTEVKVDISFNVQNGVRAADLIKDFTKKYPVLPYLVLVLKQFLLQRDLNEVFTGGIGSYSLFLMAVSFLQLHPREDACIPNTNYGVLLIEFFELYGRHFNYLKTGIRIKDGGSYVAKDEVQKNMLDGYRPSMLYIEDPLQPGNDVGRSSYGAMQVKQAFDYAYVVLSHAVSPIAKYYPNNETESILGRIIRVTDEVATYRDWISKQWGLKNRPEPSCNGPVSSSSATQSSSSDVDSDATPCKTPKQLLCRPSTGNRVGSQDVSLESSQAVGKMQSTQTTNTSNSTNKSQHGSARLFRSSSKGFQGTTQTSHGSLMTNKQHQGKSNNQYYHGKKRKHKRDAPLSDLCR
# Experimental: (§3) Dose-response studies were conducted for Compound A and RG7834 in the PAPD5 and PAPD7 A15 RNA SPA formats. Four different batches of Compound A and two different batches of RG7834 were used in both assays. Reactions contained 5 uM ATP, 0.0025 uCi/uL 3H-ATP, 50 nM A15 RNA, 10 nM enzyme in assay buffer (20 mM Tris 7.5, 3 mM CHAPS, 0.05% dBSA, 10 mM MgCl2, 1 mM DTT, 25 mM KCl). Reaction product was detected using SPA bead mix, final concentrations were 1 mg/mL PEI-PS, 1.25 mM ATP, 11.25 mM EDTA. End point signal detection correlated with slopes of reaction time courses. Curve fitting was performed using 4-parameter fitting in ActivityBase software.
# [7] = target: PAPD7 (Homo sapiens, UniProt Q5XG87); assay: PAPD7 A15 RNA SPA biochemical assay; settings: 10 nM enzyme, 5 uM ATP, 50 nM A15 RNA; read-out: average pIC50 PAPD7 (converted)
# Sequence of PAPD7 (Q5XG87 whole entry): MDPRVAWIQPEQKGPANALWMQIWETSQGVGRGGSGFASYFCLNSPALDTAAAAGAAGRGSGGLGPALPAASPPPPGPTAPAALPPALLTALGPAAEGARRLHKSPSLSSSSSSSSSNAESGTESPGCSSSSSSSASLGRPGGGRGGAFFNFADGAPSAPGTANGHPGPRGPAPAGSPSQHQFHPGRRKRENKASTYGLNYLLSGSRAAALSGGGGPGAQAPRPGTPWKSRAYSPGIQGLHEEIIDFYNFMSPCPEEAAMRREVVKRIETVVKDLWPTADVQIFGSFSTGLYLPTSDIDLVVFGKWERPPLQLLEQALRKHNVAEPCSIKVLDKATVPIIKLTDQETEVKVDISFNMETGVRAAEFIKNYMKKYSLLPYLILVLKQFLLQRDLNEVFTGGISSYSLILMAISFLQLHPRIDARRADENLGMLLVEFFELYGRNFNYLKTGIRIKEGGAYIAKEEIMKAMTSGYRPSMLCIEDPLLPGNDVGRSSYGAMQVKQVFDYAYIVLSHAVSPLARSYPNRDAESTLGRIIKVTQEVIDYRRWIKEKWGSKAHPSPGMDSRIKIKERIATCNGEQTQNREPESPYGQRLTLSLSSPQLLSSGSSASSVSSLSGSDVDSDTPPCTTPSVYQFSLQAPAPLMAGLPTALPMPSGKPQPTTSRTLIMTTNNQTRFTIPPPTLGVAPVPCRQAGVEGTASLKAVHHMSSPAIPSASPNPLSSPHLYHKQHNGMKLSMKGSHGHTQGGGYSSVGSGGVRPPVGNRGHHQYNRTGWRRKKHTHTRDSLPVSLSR
# Experimental: as §3
# [8] = tested on: AAV-HBV; assay: AAV-HBV mouse model, mono-treatment; type: in vivo, male C57BL/6 mice; settings: for HBsAg reduction: within one week of treatment, sustained
# Experimental: After 28 days of infection with AAV-HBV, mono-treatment of the infected male C57BL/6 mice with either Compound A or bepirovirsen was initiated. […] HBsAg reduction for the 3 and 30 mg/kg Compound A dose groups was close to 1 log and 1 log, respectively, within one week of treatment and reduction levels were sustained throughout the duration of the treatment period. […] The maximum observed reduction in HBeAg was 0.5 log at 30 mg/kg Compound A. There was a small reduction (0.26 to 0.40 log) in HBV DNA at the 3 and 30 mg/kg Compound A dose levels when compared to the combined vehicle group. […]
# [9] = tested on: AAV-HBV; assay: AAV-HBV mouse model, sequential treatment; type: in vivo, male C57BL/6 mice; settings: 30 mg/kg Compound A alone
# Description: After 35 days of infection with AAV-HBV, sequential treatment of the infected male C57BL/6 mice began first with Compound A followed by bepirovirsen.
# […], reductions in HBsAg was observed, reaching a maximum reduction of over 1 log and nearly 2 logs, respectively, by the second week. This reduction was statistically significant when compared to the combined vehicle group.
# [10] = preclinical; terminated in Phase 1 clinical trials due to toxicity; cited from earlier work
compound,measurement,setting,value
COCCCOc1cc2c(nc1Cl)-c1cc(=O)c(C(=O)O)cn1[C@H]1[C@@H]2CCC1(C)C [Compound A],IC50,[1],0.00095 µg/mL and 2.19 nM
same,IC50,"[1]; 504 h, read-out: average pIC50 for reduction of HBV HBsAg (converted)",0.832 nM
same,IC90,[1]; read-out: Calculated IC90,8.55 ng/mL
same,cell toxicity (visual examination),[2],no detected sign of cell toxicity
same,no adverse effect dose,[3],No adverse effect doses were established
same,no adverse effect dose,[4],No adverse effect doses were established
same,IC50,[5]; HePAD38,0.00056 µg/mL and 1.3 nM
same,EC50,[5],0.3 nM
same,IC90,"[5]; HePAD38, read-out: Calculated IC90",5.04 ng/mL
same,IC50,"[6]; 10 nM enzyme, 5 uM ATP, 50 nM A15 RNA, read-out: average pIC50 PAPD5 (converted)",12.6 nM
same,more potent than RG7834 by,[6]; PAPD5 and PAPD7 assays (FIG. 2),> 0.5 log
same,IC50,[7],20 nM
same,reduction in HBsAg,"[8]; Compound A 0.3 mg/kg, over the course of treatment",minimal reduction in HBsAg
same,HBsAg reduction compared to the combined vehicle group,[8]; Compound A 3 mg/kg or 30 mg/kg,statistically significant HBsAg reduction
same,HBsAg reduction,[8]; Compound A 3 mg/kg,~1 log
same,maximum observed reduction in HBeAg,[8]; Compound A 30 mg/kg,0.5 log
same,HBsAg reduction,[8]; Compound A 30 mg/kg,1 log
same,HBsAg levels off-treatment,"[8]; Compound A, following one week off-treatment",rebounded to baseline
same,IC50,[8]; Mus musculus,5.8e-05 µg/mL and 0.13 nM
same,IC90,"[8]; Mus musculus, read-out: Calculated IC90",0.522 ng/mL
same,effect on levels of HBeAg,"[8]; during treatment with Compound A, stabilized after day 7, rebounded within one week after end",dose dependent reduction
same,HBsAg off-treatment,[9]; within one week off-treatment,rebounded to baseline
same,reduction in HBsAg,"[9]; within one week, stable up to 28 days, statistically significant",~1 log
"Cc1cc2c(cc1OCC1COC1)CC1(CCC1)n1cc(C(=O)O)c(=O)cc1-2 [Compound B, reference compound]",EC50,[5],3 nM
"COCCCOc1cc2c(cc1OC)-c1cc(=O)c(C(=O)O)cn1[C@H](C(C)C)C2 [RG7834, reference compound]",EC50,[5],2 nM
same,no adverse effect dose,[10],no adverse effect dose could not be established
